Measured values as given in EP0263968A2, “Use of opiate antagonists in the manufacture of agents for the diagnosis and therapy of hypothalamic function disorders” (Ferring Arzneimittel GmbH, priority 1986, dated 1988).

Columns and labels:
Gonadotropine = assay: Diagnostic test: intravenous naloxone in secondary and primary amenorrhoea; assay type: in vivo
Description: Somit zeigt dieser diagnostische Test, daß bei den Fällen von sekundärer Amenorrhoe die Suppression der Gonadotropine im Serum auf einer erhöhten endogenen Opiataktivität beruht, die therapeutisch durch den längerfristigen Einsatz von Antagonisten gedämpft werden kann.

[1] = system: Patientinnen mit hypothalamischer Amenorrhoe; assay: Continuous naloxone infusion in patients with hypothalamic amenorrhoea; assay type: in vivo; conditions: duration 6 to 52 hours
Description: Im Rahmen der vorliegenden Erfindung wurden Untersuchungen an Patientinnen mit hypothalamischer Amenorrhoe durchgeführt. Diese Untersuchungen haben überraschenderweise gezeigt, daß durch die Gabe von Opiat-Antagonisten eine Zunahme von Frequenz und Amplitude der LH und FSH Sekretion erreicht wird. Es kann daher davon ausgegangen werden, daß die endogene GnRH Sekretion durch Opiat-Antagonisten vermehrt wird.
Beispielsweise wurde Naloxon bei Patientinnen mit hypothalamischer Amenorrhoe infundiert. Die Infusionsdauer betrug 6 bis 52 Stunden.

[2] = system: Patientinnen mit normalem Zyklus; assay: Naltrexone administration to patients with normal cycle; assay type: in vivo
Description: Es ergibt sich daher die Möglichkeit, Opiat-Antagonisten zur Diagnose und Therapie hypothalamischer Funktionsstörungen einzusetzen, insbesondere bei solchen, bei denen zu vermuten ist, daß eine Hemmung der entsprechenden Partialfunktion durch vermehrt gebildete Endorphine verursacht ist.

[3] = system: Patientinnen mit hypothalamischer Amenorrhoe; assay: Oral naltrexone treatment of patients with hypothalamic amenorrhoea (serial blood sampling, ultrasound); assay type: in vivo
Procedure: Die basale Gonadotropin Sekretion von Patientinnen, die an hypothalamischer Amenorrhoe litten, wurde durch Bestimmung von LH und FSH, Prolactin und Ovarien-Steroiden in Blutproben bewertet, die alle zehn Minuten während 24 Stunden entnommen wurden. Naltrexon wurde dann in einer Dosis von 50 mg pro Tag während 24 oder 28 Tagen verabreicht. 5 Tage und 14 Tage nach dem Beginn der Naltrexonverabreichung wurden wiederholte Blutproben entnommen. An den übrigen Tagen wurden täglich Blutproben entnommen und es wurde eine Ultraschalluntersuchung nach der Naltrexonverabreichung sowie einige Tage danach durchgeführt. Es wurden folgende Ergebnisse ermittelt:
Auf die Verabreichung von Naltrexon folgte eine Zunahme der Frequenz und der Amplitude der pulsatielen Gonadotropin Sekretion sowie eine Zunahme der mittleren LH und FSH Serumkonzentration sowie der Entwicklung der Gonaden-Steroid Sekretion und der Follikel, was durch Ultraschall festgestellt wurde.

[4] = oral administration possible; cited from earlier work
[5] = 50 mg per day for 24 or 28 days
[6] = patients with hypothalamic amenorrhoea

Structure (SMILES)	Anstieg der Gonadotropine (Gonadotropine; some cases of primary amenorrhoea)	Anstieg der Gonadotropine (Gonadotropine; some cases of secondary amenorrhoea)	Frequenz und Amplitude der LH und FSH Sekretion [1]	Ablauf des Zyklus [2]	Sekretion der gonadotropen Hormone [2]	Frequenz und Amplitude der pulsatielen Gonadotropin Sekretion [3, 5]	mittlere LH und FSH Serumkonzentration [3, 5]	Patientinnen, die ovulierten ([3]; 50 mg per day for 24 or 28 days, 3 patients)	Menstruation nach Absetzen des Mittels ([3]; 50 mg per day for 24 or 28 days, after withdrawal)	Entwicklung der Gonaden-Steroid Sekretion und der Follikel ([3]; 50 mg per day for 24 or 28 days, follicles by ultrasound)	menstrueller Zyklus ([3]; oral, patients with hypothalamic amenorrhoea)	Gonadotropin-Sekretion [3, 6]	Ovulation, Bildung eines Corpus luteum [3, 6]	Verweildauer im Plasma [4]
C=CCN1CC[C@]23c4c5ccc(O)c4OC2C(=O)CC[C@@]3(O)[C@H]1C5 (some centres unmarked) [Naloxon, 17-Allyl-4,5-epoxy-3,14-dihydroxymorphinan-6-on]	nicht oder nur in wesentlich geringerem Ausmaß	deutlichen Anstieg	deutliche Zunahme	–	–	–	–	–	–	–	–	–	–	–
O=C1CC[C@@]2(O)[C@H]3Cc4ccc(O)c5c4[C@@]2(CCN3CC2CC2)C1O5 (some centres unmarked) [Naltrexon, 17-(Cyclopropylmethyl)-4,5-epoxy-3,14-dihydroxymorphinan-6-on]	–	–	–	keinen Einfluß	keinen Einfluß	Zunahme	Zunahme	Eine von 3	Sämtliche Patientinnen menstruierten	Zunahme	Normalisierung	Normalisierung	zur Ovulation und zur Bildung eines Corpus luteum	lange Verweildauer im Plasma
